The numbers were not newly measured in US20180193305A1, “CROMOLYN COMPOSITIONS FOR TREATMENT OF CHRONIC COUGH DUE TO IDIOPATHIC PULMONARY FIBROSIS” (Patara Pharma, LLC, priority 2016, published 2018), which cites them from elsewhere.

Like-named read-outs stand apart in the source and are kept apart here.

For this series the following is noted: in vivo.

Consider `O=C(O)c1cc(=O)c2c(OCC(O)COc3cccc4oc(C(=O)O)cc(=O)c34)cccc2o1` [cromolyn sodium, disodium 5,5′-(2-hydroxypropane-1,3-diyl)bis(oxy)bis(4-oxo-4H-chromene-2-carboxylate)], for which the Oral bioavailability is on record as approximately 1%. Moreover, the Oral bioavailability entry (listed as cromolyn) was “about 1%”.
